Laboratory results from patent US20200017495A1, “NOVEL HETEROCYCLIC COMPOUNDS AND THEIR USE IN PREVENTING OR TREATING BACTERIAL INFECTIONS” (priority 2017, published 2020).

Experiments:
Assay in all cases: MIC of compounds alone and combined with antibacterials, broth microdilution (CLSI)
Format in all cases: cell-based
[1] = test system: Enterobacter aerogenes (EAE) isolates
In short: (§1)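 Broth microdilution in cation-adjusted Mueller-Hinton broth, inoculum 5.10^5 CFU/mL, 16-20 h at 35° C in ambient air, on genotyped isolates. Compound MIC, alone or with an antibacterial, taken visually as lowest concentration preventing growth; antibacterial MIC determined at each compound concentration.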

[2] = test system: Citrobacter freundii (CFR) isolates
In short: as §1

[3] = test system: Escherichia coli (ECO) isolates
In short: as §1

## C=CC1=C(C(=O)O)N2C(=O)[C@@H](NC(=O)/C(=N\OCC(=O)O)c3csc(N)n3)[C@H]2SC1 [FIX, Cefixime]
[1]; EAE 49469, AF2 @ 8 μg/mL
  MIC ATB in combination: <0.25 mg/L
[1]; EAE 49469, AF3 @ 8 μg/mL
  MIC ATB in combination: <0.25 mg/L
[1]; EAE 49469, CLA @ 4 μg/mL
  MIC ATB in combination: >128 mg/L
[1]; EAE 200261, AF2 @ 8 μg/mL
  MIC ATB in combination: 8 mg/L
[1]; EAE 200261, AF3 @ 8 μg/mL
  MIC ATB in combination: <0.25 mg/L
[1]; EAE 200261, CLA @ 4 μg/mL
  MIC ATB in combination: >128 mg/L
[1]; EAE UFR199, AF2 @ 8 μg/mL
  MIC ATB in combination: 0.5 mg/L
[1]; EAE UFR199, AF3 @ 8 μg/mL
  MIC ATB in combination: <=0.25 μg/mL
[1]; EAE UFR199, CLA @ 4 μg/mL
  MIC ATB in combination: 16 mg/L
[1]; EAE UFR201, AF2 @ 8 μg/mL
  MIC ATB in combination: <0.25 mg/L
[1]; EAE UFR201, AF3 @ 8 μg/mL
  MIC ATB in combination: <0.25 mg/L
[1]; EAE UFR201, CLA @ 4 μg/mL
  MIC ATB in combination: <=0.25 μg/mL
[1]; EAE UFR202, AF2 @ 8 μg/mL
  MIC ATB in combination: 16 mg/L
[1]; EAE UFR202, AF3 @ 8 μg/mL
  MIC ATB in combination: 4 mg/L
[1]; EAE UFR207, AF2 @ 8 μg/mL
  MIC ATB in combination: <0.25 mg/L
[1]; EAE UFR207, AF3 @ 8 μg/mL
  MIC ATB in combination: <0.25 mg/L
[1]; EAE UFR207, CLA @ 4 μg/mL
  MIC ATB in combination: 1 mg/L
[1]; EAE UFR213, AF2 @ 8 μg/mL
  MIC ATB in combination: 16 mg/L
[1]; EAE UFR213, AF3 @ 8 μg/mL
  MIC ATB in combination: <=0.25 μg/mL
[1]; strain EAE 49469, genotype AmpC
  MIC: >128 mg/L
[1]; strain EAE 200261, genotype TEM-x, AmpC
  MIC: >128 mg/L
[1]; strain EAE UFR199, compound alone
  MIC: >1024 mg/L
[1]; strain EAE UFR199, genotype TEM-1b, SHV-12, KPC-2, OXA-9
  MIC: >1024 mg/L
[1]; strain EAE UFR201, genotype TEM-1, SHV-12, CTX-M-15
  MIC: >128 mg/L
[1]; strain EAE UFR202, genotype TEM-24
  MIC: >128 mg/L
[1]; strain EAE UFR213, genotype TEM-24
  MIC: >128 mg/L
[2]; CFR UFR10, AF2 @ 8 μg/mL
  MIC ATB in combination: <0.25 mg/L
[2]; CFR UFR10, AF3 @ 8 μg/mL
  MIC ATB in combination: <=0.25 μg/mL
[2]; CFR UFR10, CLA @ 4 μg/mL
  MIC ATB in combination: 32 mg/L
[2]; CFR UFR11, AF2 @ 8 μg/mL
  MIC ATB in combination: 16 mg/L
[2]; CFR UFR11, AF3 @ 8 μg/mL
  MIC ATB in combination: 32 mg/L
[2]; CFR UFR11, CLA @ 4 μg/mL
  MIC ATB in combination: 32 mg/L
[2]; CFR UFR37, AF2 @ 8 μg/mL
  MIC ATB in combination: <=0.25 μg/mL
[2]; CFR UFR37, AF3 @ 8 μg/mL
  MIC ATB in combination: <=0.25 μg/mL
[2]; CFR UFR37, CLA @ 4 μg/mL
  MIC ATB in combination: >128 mg/L
[2]; CFR UFR83, AF2 @ 8 μg/mL
  MIC ATB in combination: >128 mg/L
[2]; CFR UFR83, AF3 @ 8 μg/mL
  MIC ATB in combination: >128 mg/L
[2]; CFR UFR83, CLA @ 4 μg/mL
  MIC ATB in combination: >128 mg/L
[2]; CFR UFR146, AF2 @ 8 μg/mL
  MIC ATB in combination: 2 mg/L
[2]; CFR UFR146, AF3 @ 8 μg/mL
  MIC ATB in combination: 1 mg/L
[2]; CFR UFR146, CLA @ 4 μg/mL
  MIC ATB in combination: 64 mg/L
[2]; CFR UFR248, AF2 @ 8 μg/mL
  MIC ATB in combination: <0.25 mg/L
[2]; CFR UFR248, AF3 @ 8 μg/mL
  MIC ATB in combination: <=0.25 μg/mL
[2]; CFR UFR248, CLA @ 4 μg/mL
  MIC ATB in combination: 4 mg/L
[2]; CFR UFR249, AF2 @ 8 μg/mL
  MIC ATB in combination: <=0.25 μg/mL
[2]; CFR UFR249, AF3 @ 8 μg/mL
  MIC ATB in combination: <=0.25 μg/mL
[2]; CFR UFR249, CLA @ 4 μg/mL
  MIC ATB in combination: 2 mg/L
[2]; CFR UFR250, AF2 @ 8 μg/mL
  MIC ATB in combination: <0.25 mg/L
[2]; CFR UFR250, AF3 @ 8 μg/mL
  MIC ATB in combination: <0.25 mg/L
[2]; CFR UFR250, CLA @ 4 μg/mL
  MIC ATB in combination: 2 mg/L
[2]; strain CFR UFR10, genotype OXA-48
  MIC: >128 mg/L
[2]; strain CFR UFR11, genotype TEM-1, OXA-1, OXA-48
  MIC: 32 mg/L
[2]; strain CFR UFR37, genotype TEM-1, CTX-M-15, NDM-1
  MIC: >128 mg/L
[2]; strain CFR UFR83, genotype TEM-3, AmpC
  MIC: >128 mg/L
[2]; strain CFR UFR146, genotype TEM-1, KPC-2
  MIC: 64 mg/L
[2]; strain CFR UFR147, genotype TEM-1, CTX-M-15, OXA-1, OXA-181, OXA-10, OXA-9, NDM-1, ArmA, dfrA12, aadA2, antibiotic alone
  MIC: >128 mg/L
[2]; strain CFR UFR147, with AF2 @ 8 μg/mL
  MIC ATB in combination: <0.25 mg/L
[2]; strain CFR UFR147, with AF3 @ 8 μg/mL
  MIC ATB in combination: <0.25 mg/L
[2]; strain CFR UFR147, with CLA @ 4 μg/mL
  MIC ATB in combination: >128 mg/L
[2]; strain CFR UFR148, genotype TEM-1, TEM-2, CTX-M-15, NDM-1, antibiotic alone
  MIC: >128 mg/L
[2]; strain CFR UFR148, with AF2 @ 8 μg/mL
  MIC ATB in combination: <0.25 mg/L
[2]; strain CFR UFR148, with AF3 @ 8 μg/mL
  MIC ATB in combination: <0.25 mg/L
[2]; strain CFR UFR148, with CLA @ 4 μg/mL
  MIC ATB in combination: >128 mg/L
[2]; strain CFR UFR248, genotype CTX-M-15
  MIC: >128 mg/L
[2]; strain CFR UFR249, genotype TEM-1, CTX-M-15
  MIC: >128 mg/L
[2]; strain CFR UFR250, compound alone
  MIC: >128 mg/L
[2]; strain CFR UFR250, genotype TEM-1, SHV-28, CTX-M-15
  MIC: >128 mg/L
[2]; strain CFR UFR251, genotype SHV-11, VIM-1, antibiotic alone
  MIC: >128 mg/L
[2]; strain CFR UFR251, with AF2 @ 8 μg/mL
  MIC ATB in combination: <0.25 mg/L
[2]; strain CFR UFR251, with AF3 @ 8 μg/mL
  MIC ATB in combination: <0.25 mg/L
[2]; strain CFR UFR251, with CLA @ 4 μg/mL
  MIC ATB in combination: >128 mg/L
[2]; strain CFR UFR252, genotype VIM-2, antibiotic alone
  MIC: >128 mg/L
[2]; strain CFR UFR252, with AF2 @ 8 μg/mL
  MIC ATB in combination: >128 mg/L
[2]; strain CFR UFR252, with AF3 @ 8 μg/mL
  MIC ATB in combination: >128 mg/L
[2]; strain CFR UFR252, with CLA @ 4 μg/mL
  MIC ATB in combination: >128 mg/L
[2]; strain CFR UFR253, genotype TEM-1, SHV-12, OXA-48
  MIC: >128 mg/L
[2]; strain CFR UFR253, with AF2 @ 8 μg/mL
  MIC ATB in combination: 1 mg/L
[2]; strain CFR UFR253, with AF3 @ 8 μg/mL
  MIC ATB in combination: 8 mg/L
[2]; strain CFR UFR253, with CLA @ 4 μg/mL
  MIC ATB in combination: >128 mg/L
[2]; strain CFR UFR254, genotype VEB-1b, OXA-48, qnrA
  MIC: 32 mg/L
[2]; strain CFR UFR254, with AF2 @ 8 μg/mL
  MIC ATB in combination: <=0.25 μg/mL
[2]; strain CFR UFR254, with AF3 @ 8 μg/mL
  MIC ATB in combination: 0.5 mg/L
[2]; strain CFR UFR254, with CLA @ 4 μg/mL
  MIC ATB in combination: 16 mg/L
[3]; ECO 4133, AF2 @ 8 μg/mL
  MIC ATB in combination: <0.25 mg/L
[3]; ECO 4133, AF3 @ 8 μg/mL
  MIC ATB in combination: <0.25 mg/L
[3]; ECO 4133, CLA @ 4 μg/mL
  MIC ATB in combination: 0.5 mg/L
[3]; ECO 5302, AF2 @ 8 μg/mL
  MIC ATB in combination: <0.25 mg/L
[3]; ECO 5302, AF3 @ 8 μg/mL
  MIC ATB in combination: <0.25 mg/L
[3]; ECO 5302, CLA @ 4 μg/mL
  MIC ATB in combination: 0.5 mg/L
[3]; ECO 131119, AF2 @ 8 μg/mL
  MIC ATB in combination: <0.25 mg/L
[3]; ECO 131119, AF3 @ 8 μg/mL
  MIC ATB in combination: <0.25 mg/L
[3]; ECO 131119, CLA @ 4 μg/mL
  MIC ATB in combination: <=0.25 μg/mL
[3]; ECO 180070, AF2 @ 8 μg/mL
  MIC ATB in combination: <0.25 mg/L
[3]; ECO 180070, AF3 @ 8 μg/mL
  MIC ATB in combination: <0.25 mg/L
[3]; ECO 180070, CLA @ 4 μg/mL
  MIC ATB in combination: 2 mg/L
[3]; ECO 190314, AF2 @ 8 μg/mL
  MIC ATB in combination: <0.25 mg/L
[3]; ECO 190314, AF3 @ 8 μg/mL
  MIC ATB in combination: <0.25 mg/L
[3]; ECO 190314, CLA @ 4 μg/mL
  MIC ATB in combination: 2 mg/L
[3]; ECO 190317, AF2 @ 8 μg/mL
  MIC ATB in combination: <0.25 mg/L
